# Where “and” joins values, the source holds several entries; their conditions need not be identical. Equal entries are not always repeated.
# What was measured:
# Zika virus = assay: Functional CPE-based assay to measure dose dependent changes in antiviral-drug inhibitory efficacy against Zika virus MR766 in Vero E6 miRFP670 cells (cotreated with P-gp inhibitor, CP100356). Cells are treated with antiviral candidates that are serially diluted. EC50 is reported via analysis of MTS assay as a readout of CPE. The assay has been performed by KU Leuven.; assay type: organism-based, Chlorocebus sabaeus, Vero C1008; settings: for EC90: P-gp concentration 500 nM, P-gp inhibitor CP100356
# dengue virus type 2 = assay: Functional assay to measure dose dependent changes in antiviral-drug inhibitory efficacy against Dengue virus type 2 New Guinea C in Vero E6 miRFP670 cells (cotreated with P-gp inhibitor, CP100356). Cells are treated with antiviral candidates that are serially diluted, following infection, cells are fixed. EC50 is reported via analysis of fluorescence intensity using high-content imager. The …; assay type: organism-based, Chlorocebus sabaeus, Vero C1008; settings: for EC90: P-gp concentration 500 nM, P-gp inhibitor CP100356
smiles,measurement,setting,value
O=C(Nc1ccc2c(c1)CNC2)c1cc(F)cc2[nH]c(-c3cnc(C4CC4)o3)nc12,EC90,"Zika virus; Baseline response 0 %, Hill slope 1.364, Maximum measured 18.791 %, Maximum response 100 %, Minimum measured -1.808 %, R squared 0.107",> 50 µM
same,EC50,"Zika virus; Zika virus, Vero C1008",> 50 µM
same,EC90,"Zika virus; Zika virus, Vero C1008, Baseline response 0 %, Hill slope 2.704, Maximum measured 11.553 %, Maximum response 100 %, Minimum measured -5.923 %, R squared 0.137",> 50 µM
same,EC90,"dengue virus type 2; Baseline response 0 %, EC90 CI (lower) 0.872 uM, EC90 CI (upper) 3.596 uM, Hill slope -8.389, Maximum measured 102.302 %, Maximum response 100 %, Minimum measured 7.049 %, R squared 0.894",2.99 µM
same,EC50,"dengue virus type 2; Dengue virus, Vero C1008",2.33 µM
same,EC90,"dengue virus type 2; Dengue virus, Vero C1008, Baseline response 0 %, EC90 CI (lower) 0.484 uM, EC90 CI (upper) 7.419 uM, Hill slope -10.584, Maximum measured 98.644 %, Maximum response 100 %, Minimum measured 4.286 %, R squared 0.843",2.87 µM
same,EC50,dengue virus type 2; vero c1008,2.3 µM
O=C(Nc1ccc2c(c1)CNC2)c1cc(Cl)cc2cn[nH]c12,EC50,"Zika virus; Zika virus, Vero C1008",3.01 µM
same,EC90,"Zika virus; Zika virus, Vero C1008, Baseline response 0 %, EC90 CI (lower) 2.341 uM, EC90 CI (upper) 14.506 uM, Hill slope 3.321, Maximum measured 138.559 %, Maximum response 100 %, Minimum measured 2.928 %, R squared 0.845",5.83 µM
same,EC50,"dengue virus type 2; Dengue virus, Vero C1008",> 50 µM
same,EC90,"dengue virus type 2; Dengue virus, Vero C1008, Maximum measured 130.797 %, Minimum measured 96.2 %",> 50 µM
O=C(Nc1ccc2c(c1)CNC2)c1cc(Br)cc2[nH]c(=O)[nH]c12,EC50,"Zika virus; Zika virus, Vero C1008",> 50 µM
same,EC90,"Zika virus; Zika virus, Vero C1008, Baseline response 0 %, Hill slope 1.27, Maximum measured 26.011 %, Maximum response 100 %, Minimum measured -2.243 %, R squared 0.854",> 50 µM
same,EC50,"dengue virus type 2; Dengue virus, Vero C1008",> 50 µM
same,EC90,"dengue virus type 2; Dengue virus, Vero C1008, Maximum measured 135.314 %, Minimum measured 105.633 %",> 50 µM
CNC(=O)[C@H](Nc1ccc2c(c1)CNC2)c1cc(Cl)cc2[nH]c(-c3ccccc3)nc12,EC90,"Zika virus; Baseline response 0 %, EC90 CI (lower) 1.657 uM, EC90 CI (upper) 9.069 uM, Hill slope 2.736, Maximum measured 134.068 %, Maximum response 100 %, Minimum measured 11.054 %, R squared 0.856",3.88 µM
same,EC50,"Zika virus; Zika virus, Vero C1008",1.54 µM
same,EC90,"Zika virus; Zika virus, Vero C1008, Baseline response 0 %, EC90 CI (lower) 2.457 uM, EC90 CI (upper) 4.2 uM, Hill slope 2.999, Maximum measured 107.773 %, Maximum response 100 %, Minimum measured 2.918 %, R squared 0.982",3.21 µM
same,EC50,Zika virus; vero c1008,1.74 µM
same,EC50,"dengue virus type 2; Dengue virus, Vero C1008",> 25 µM
same,EC90,"dengue virus type 2; Dengue virus, Vero C1008, Maximum measured 190.221 %, Minimum measured 63.084 %",> 25 µM
same,EC90,"dengue virus type 2; Dengue virus, Vero C1008, Baseline response 0 %, Hill slope -0.424, Maximum measured 89.369 %, Maximum response 100 %, Minimum measured 51.028 %, R squared 0.334",> 25 µM
N#Cc1ccc(-c2nc3c(C(=O)Nc4ccc5c(c4)CNC5)cc(F)cc3[nH]2)cc1,EC90,"Zika virus; Baseline response 0 %, Hill slope 0.2, Maximum measured 29.739 %, Maximum response 100 %, Minimum measured 4.071 %, R squared 0.256",> 50 µM
same,EC50,"Zika virus; Zika virus, Vero C1008",> 50 µM
same,EC90,"Zika virus; Zika virus, Vero C1008, Baseline response 0 %, Hill slope 0.539, Maximum measured 18.428 %, Maximum response 100 %, Minimum measured 0.213 %, R squared 0.888",> 50 µM
same,EC90,"dengue virus type 2; Dengue virus, Vero C1008, Maximum measured 143.39 %, Minimum measured 94.915 %",> 50 µM
same,EC90,"dengue virus type 2; Dengue virus, Vero C1008, Maximum measured 155.678 %, Minimum measured 70.057 %",> 6.25 µM
same,EC50,dengue virus type 2; vero c1008,> 50 µM
Cc1nc2c(C(=O)Nc3ccc4c(c3)CNC4)cc(Cl)cc2[nH]1,EC50,"Zika virus; Zika virus, Vero C1008",> 50 µM
same,EC90,"Zika virus; Zika virus, Vero C1008, Maximum measured 8.786 %, Minimum measured -9.149 %",> 50 µM
same,EC50,"dengue virus type 2; Dengue virus, Vero C1008",> 6.25 µM
same,EC90,"dengue virus type 2; Dengue virus, Vero C1008, Baseline response 0 %, Hill slope -1.031, Maximum measured 89.345 %, Maximum response 100 %, Minimum measured 48.357 %, R squared 0.44",> 6.25 µM
O=C(NC1CCOCC1)[C@H](Nc1ccc2c(c1)CNC2)c1cc(Cl)cc2[nH]ncc12,EC50,"Zika virus; Zika virus, Vero C1008",16.8 µM
same,EC90,"Zika virus; Zika virus, Vero C1008, Baseline response 0 %, Hill slope 1.579, Maximum measured 82.863 %, Maximum response 100 %, Minimum measured -0.215 %, R squared 0.968",> 50 µM
same,EC50,"dengue virus type 2; Dengue virus, Vero C1008",> 50 µM
same,EC90,"dengue virus type 2; Dengue virus, Vero C1008, Maximum measured 134.779 %, Minimum measured 105.958 %",> 50 µM
O=C(Nc1ccc2c(c1)CNC2)c1cc(F)c2[nH]ccc2c1,EC50,"Zika virus; Zika virus, Vero C1008",24.5 µM
same,EC90,"Zika virus; Zika virus, Vero C1008, Baseline response 0 %, Hill slope 0.879, Maximum measured 122.421 %, Maximum response 100 %, Minimum measured -4.109 %, R squared 0.266",> 50 µM
same,EC50,"dengue virus type 2; Dengue virus, Vero C1008",< 0.391 µM
same,EC90,"dengue virus type 2; Dengue virus, Vero C1008, Baseline response 0 %, Hill slope 3.427, Maximum measured 127.165 %, Maximum response 100 %, Minimum measured 69.586 %, R squared 0.325",< 0.391 µM
O=C(Nc1ccc2c(c1)CNC2)c1cc(F)cc2c1CCC2,EC50,"Zika virus; Zika virus, Vero C1008",1.81 µM
same,EC90,"Zika virus; Zika virus, Vero C1008, Baseline response 0 %, EC90 CI (lower) 1.329 uM, EC90 CI (upper) 15.086 uM, Hill slope 2.425, Maximum measured 145.547 %, Maximum response 100 %, Minimum measured 22.113 %, R squared 0.732",4.48 µM
same,EC50,"dengue virus type 2; Dengue virus, Vero C1008",> 6.25 µM
same,EC90,"dengue virus type 2; Dengue virus, Vero C1008, Baseline response 0 %, Hill slope -2.434, Maximum measured 106.021 %, Maximum response 100 %, Minimum measured 60.209 %, R squared 0.87",> 6.25 µM
Cc1cccc(-c2nc3c(C(=O)Nc4ccc5c(c4)CNC5)cc(Cl)cc3[nH]2)c1O,EC50,"Zika virus; Zika virus, Vero C1008",> 50 µM
same,EC90,"Zika virus; Zika virus, Vero C1008, Maximum measured 4.83 %, Minimum measured -9.413 %",> 50 µM
same,EC90,"Zika virus; Zika virus, Vero C1008, Baseline response 0 %, Hill slope 1.997, Maximum measured 9.723 %, Maximum response 100 %, Minimum measured -5.385 %, R squared 0.475",> 50 µM
same,EC50,"dengue virus type 2; Dengue virus, Vero C1008",46.9 µM
same,EC90,"dengue virus type 2; Dengue virus, Vero C1008, Maximum measured 146.036 %, Minimum measured 86.561 %",> 50 µM
same,EC90,"dengue virus type 2; Dengue virus, Vero C1008, Baseline response 0 %, Hill slope -5.285, Maximum measured 123.385 %, Maximum response 100 %, Minimum measured 41.68 %, R squared 0.576",> 50 µM
same,EC50,dengue virus type 2; vero c1008,> 50 µM
CC(C)CNC(=O)[C@H](Nc1ccc2c(c1)CNC2)c1cc(Cl)cc2[nH]ncc12,EC50,"Zika virus; Zika virus, Vero C1008",14.2 µM
same,EC90,"Zika virus; Zika virus, Vero C1008, Baseline response 0 %, EC90 CI (lower) 23.751 uM, EC90 CI (upper) 85.548 uM, Hill slope 1.9, Maximum measured 81.211 %, Maximum response 100 %, Minimum measured -3.072 %, R squared 0.886",45.1 µM
same,EC50,"dengue virus type 2; Dengue virus, Vero C1008",> 50 µM
same,EC90,"dengue virus type 2; Dengue virus, Vero C1008, Maximum measured 133.558 %, Minimum measured 96.187 %",> 50 µM
CCOCCNC(=O)[C@H](Nc1ccc2c(c1)CNC2)c1cc(Cl)cc2[nH]ncc12,EC50,"Zika virus; Zika virus, Vero C1008",39.6 µM
same,EC90,"Zika virus; Zika virus, Vero C1008, Baseline response 0 %, Hill slope 1.597, Maximum measured 58.987 %, Maximum response 100 %, Minimum measured -2.742 %, R squared 0.989",> 50 µM
same,EC50,"dengue virus type 2; Dengue virus, Vero C1008",> 50 µM
same,EC90,"dengue virus type 2; Dengue virus, Vero C1008, Maximum measured 134.278 %, Minimum measured 95.519 %",> 50 µM
O=C(Nc1ccc2c(c1)CNC2)c1cc(F)cc2nn(-c3ccccn3)nc12,EC90,"Zika virus; Baseline response 0 %, Hill slope 0.342, Maximum measured 8.101 %, Maximum response 100 %, Minimum measured -1.287 %, R squared 0.284",> 50 µM
same,EC90,"Zika virus; Baseline response 0 %, Hill slope -0.391, Maximum measured 8.995 %, Maximum response 100 %, Minimum measured 1.943 %, R squared 0.39",> 3.12 µM
same,EC50,Zika virus; vero c1008,> 50 µM
same,EC90,"dengue virus type 2; Baseline response 0 %, EC90 CI (lower) 0.77 uM, EC90 CI (upper) 2.483 uM, Hill slope -4.828, Maximum measured 102.327 %, Maximum response 100 %, Minimum measured 2.546 %, R squared 0.795",3.44 µM
same,EC90,"dengue virus type 2; Dengue virus, Vero C1008, Baseline response 0 %, EC90 CI (lower) 0.427 uM, EC90 CI (upper) 5.546 uM, Hill slope -1.321, Maximum measured 90.171 %, Maximum response 100 %, Minimum measured 71.834 %, R squared 0.697",> 6.25 µM
same,EC50,dengue virus type 2; vero c1008,> 6.25 µM and 2.18 µM
CCCNC(=O)[C@H](Nc1ccc2c(c1)CNC2)c1cc(Cl)cc2[nH]ncc12,EC50,"Zika virus; Zika virus, Vero C1008",6.6 µM
same,EC90,"Zika virus; Zika virus, Vero C1008, Baseline response 0 %, EC90 CI (lower) 8.551 uM, EC90 CI (upper) 22.021 uM, Hill slope 3.004, Maximum measured 121.473 %, Maximum response 100 %, Minimum measured -0.697 %, R squared 0.949",13.7 µM
same,EC50,"dengue virus type 2; Dengue virus, Vero C1008",> 50 µM
same,EC90,"dengue virus type 2; Dengue virus, Vero C1008, Maximum measured 131.319 %, Minimum measured 89.09 %",> 50 µM
O=C(Nc1ccc2c(c1)CNC2)c1cc(F)cc2[nH]c(-c3ccccc3)nc12,EC50,"Zika virus; Zika virus, Vero C1008",2.13 µM
same,EC90,"Zika virus; Zika virus, Vero C1008, Baseline response 0 %, Hill slope 1.327, Maximum measured 69.085 %, Maximum response 100 %, Minimum measured 18.26 %, R squared 0.744",> 3.12 µM
same,EC90,"dengue virus type 2; Dengue virus, Vero C1008, Maximum measured 101.649 %, Minimum measured 101.649 %",> 0.391 µM
same,EC90,"dengue virus type 2; Dengue virus, Vero C1008, Maximum measured 246.46 %, Minimum measured 208.361 %",> 6.25 µM
same,EC50,dengue virus type 2; vero c1008,> 6.25 µM

# — ChEMBL document CHEMBL5661943, “ASAP - In vitro antiviral effect” (2024)
